In one test the target is MAGL (Mus musculus (Mouse), UniProt O35678). The experiment in a line: In vitro competitive activity-based protein profiling, MAGL (mouse). Format: biochemical. Conditions: for inhibition at 1 µM: read-out: MAGL % inh. 1 μM (mouse). The procedure, abridged: (§1)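 Residual MAGL and FAAH activity came from in-gel fluorescence after competition between inhibitor (30 min preincubation, 37° C) and the activity-based probe FP-Rh or HT-01 (30 min, 37° C) in mouse or human tissue or cell proteomes.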
Sequence of MAGL (O35678 whole entry): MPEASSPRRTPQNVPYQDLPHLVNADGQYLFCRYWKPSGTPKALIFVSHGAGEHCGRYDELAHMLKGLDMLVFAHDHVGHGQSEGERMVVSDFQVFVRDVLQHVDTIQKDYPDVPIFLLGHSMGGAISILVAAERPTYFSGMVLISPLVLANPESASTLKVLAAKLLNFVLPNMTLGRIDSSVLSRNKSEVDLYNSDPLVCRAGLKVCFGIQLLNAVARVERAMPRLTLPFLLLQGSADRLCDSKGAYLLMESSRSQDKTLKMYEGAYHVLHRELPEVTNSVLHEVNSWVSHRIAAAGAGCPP

In the next test the target is FAAH (Mus musculus (Mouse), UniProt O08914). Description: In vitro competitive activity-based protein profiling, FAAH (mouse). Format: biochemical. Particulars: for inhibition at 1 µM: read-out: FAAH % inh. 1 μM (mouse). In outline:
as §1

pIC50: −log10 of the molar value.

Sequence of FAAH (O08914 whole entry): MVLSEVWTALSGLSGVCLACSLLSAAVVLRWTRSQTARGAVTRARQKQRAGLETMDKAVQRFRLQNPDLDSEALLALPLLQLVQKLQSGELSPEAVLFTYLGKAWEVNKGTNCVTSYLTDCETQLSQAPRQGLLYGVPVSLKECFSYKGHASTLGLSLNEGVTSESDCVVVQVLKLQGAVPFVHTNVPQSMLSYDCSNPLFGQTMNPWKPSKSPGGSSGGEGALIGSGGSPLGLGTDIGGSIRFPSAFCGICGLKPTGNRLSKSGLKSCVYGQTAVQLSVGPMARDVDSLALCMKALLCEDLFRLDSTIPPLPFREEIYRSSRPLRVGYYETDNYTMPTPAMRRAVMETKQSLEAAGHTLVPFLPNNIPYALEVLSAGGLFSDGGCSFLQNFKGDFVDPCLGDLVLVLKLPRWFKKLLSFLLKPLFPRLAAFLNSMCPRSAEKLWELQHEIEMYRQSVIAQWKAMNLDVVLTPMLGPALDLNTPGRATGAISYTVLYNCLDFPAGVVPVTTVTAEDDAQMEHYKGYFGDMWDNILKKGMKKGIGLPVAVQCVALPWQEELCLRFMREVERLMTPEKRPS

For the compound `CC(=O)N(C)c1cnn(C(=O)N2CCC3(CCN(Cc4cc(C(F)(F)F)ccc4N4CCCC4)C3)C2)c1` (stereo not drawn) [Example 74, N-methyl-N-(1-(7-(2-(pyrrolidin-1-yl)-5-(trifluoromethyl)benzyl)-2,7-diazaspiro[4.4]nonane-2-carbonyl)-1H-pyrazol-4-yl)acetamide], the inhibition at 1 µM at MAGL is no less than 75%; on FAAH, 50 to 75%.

Regarding `CC(=O)N(C)c1cnn(C(=O)N2CCC3(CCN(Cc4cccc(Cl)c4)C3)C2)c1` (stereo not drawn) [Example 78, N-(1-(7-(3-chlorobenzyl)-2,7-diazaspiro[4.4]nonane-2-carbonyl)-1H-pyrazol-4-yl)-N-methylacetamide], the pIC50 (usually −log10 of the IC50, conventionally taken in molar units) was 5.00 to 6.00 at MAGL and no less than 7.00 on FAAH. Moreover, the inhibition at 1 µM on MAGL was 50 to 75%; on FAAH, no less than 75%.

`CC(=O)N(C)c1cnn(C(=O)N2CCC3(CCN(Cc4cccc(N5CCCC5)c4)C3)C2)c1` (stereo not drawn) [Example 82, N-methyl-N-(1-(7-(3-(pyrrolidin-1-yl)benzyl)-2,7-diazaspiro[4.4]nonane-2-carbonyl)-1H-pyrazol-4-yl)acetamide]: the inhibition at 1 µM at MAGL is 25 to 50%; on FAAH it was no less than 75%.

In the case of `CC(=O)N(C)c1cnn(C(=O)N2CC3(CCN(Cc4cccc(C)c4)CC3)C2)c1` [Example 83, N-methyl-N-(1-(7-(3-methylbenzyl)-2,7-diazaspiro[3.5]nonane-2-carbonyl)-1H-pyrazol-4-yl)acetamide], the inhibition at 1 µM at MAGL and on FAAH was 25 to 50% throughout.

Regarding `CC(=O)N(C)c1cnn(C(=O)N2CC3(CCN(Cc4ccc(Cl)cc4)CC3)C2)c1` [Example 84, N-(1-(7-(4-chlorobenzyl)-2,7-diazaspiro[3.5]nonane-2-carbonyl)-1H-pyrazol-4-yl)-N-methylacetamide], the inhibition at 1 µM is 50 to 75% at MAGL and no less than 75% on FAAH.

On to `CC(=O)N(C)c1cnn(C(=O)N2CC3(CCN(Cc4cccc(Cl)c4)CC3)C2)c1` [Example 85, N-(1-(7-(3-chlorobenzyl)-2,7-diazaspiro[3.5]nonane-2-carbonyl)-1H-pyrazol-4-yl)-N-methylacetamide], for which the inhibition at 1 µM at MAGL is 50 to 75%; at FAAH, no less than 75%.

With `CC(=O)N(C)c1cnn(C(=O)N2CC3(CCN(Cc4ccccc4Cl)CC3)C2)c1` [Example 86, N-(1-(7-(2-chlorobenzyl)-2,7-diazaspiro[3.5]nonane-2-carbonyl)-1H-pyrazol-4-yl)-N-methylacetamide], the inhibition at 1 µM at MAGL is 50 to 75%; on FAAH, no less than 75%.

As for `CC(=O)N(C)c1cnn(C(=O)N2CC3(CCN(Cc4ccc(C)cc4)CC3)C2)c1` [Example 87, N-methyl-N-(1-(7-(4-methylbenzyl)-2,7-diazaspiro[3.5]nonane-2-carbonyl)-1H-pyrazol-4-yl)acetamide], the inhibition at 1 µM at MAGL was 50 to 75%; at FAAH, 25 to 50%.

For the compound `CC(=O)N(C)c1cnn(C(=O)N2CC3(CCN(Cc4cccc(C(F)(F)F)c4)CC3)C2)c1` [Example 88, N-methyl-N-(1-(7-(3-(trifluoromethyl)benzyl)-2,7-diazaspiro[3.5]nonane-2-carbonyl)-1H-pyrazol-4-yl)acetamide], the inhibition at 1 µM was 50 to 75% at MAGL and no less than 75% at FAAH.

As to `CC(=O)N(C)c1cnn(C(=O)N2CC3(CCN(Cc4ccccc4C)CC3)C2)c1` [Example 89, N-methyl-N-(1-(7-(2-methylbenzyl)-2,7-diazaspiro[3.5]nonane-2-carbonyl)-1H-pyrazol-4-yl)acetamide], the inhibition at 1 µM on MAGL and on FAAH was 25 to 50% throughout.

As for `CC(=O)N(C)c1cnn(C(=O)N2CC3CN(Cc4ccc(C)cc4)CC3C2)c1` (stereo not drawn) [Example 91, N-methyl-N-(1-(5-(4-methylbenzyl)octahydropyrrolo[3,4-c]pyrrole-2-carbonyl)-1H-pyrazol-4-yl)acetamide], on MAGL, the pIC50 was 6.00 to 7.00 and the inhibition at 1 µM is 50 to 75%. In addition, on FAAH, the pIC50 is 6.00 to 7.00 and the inhibition at 1 µM was no less than 75%.

For `CC(=O)N(C)c1cnn(C(=O)N2CC3CN(Cc4cccc(C)c4)CC3C2)c1` (stereo not drawn) [Example 92, N-methyl-N-(1-(5-(3-methylbenzyl)octahydropyrrolo[3,4-c]pyrrole-2-carbonyl)-1H-pyrazol-4-yl)acetamide], on MAGL, the pIC50 was 6.00 to 7.00 and the inhibition at 1 µM is no less than 75%. Besides, at FAAH, the pIC50 is no less than 7.00 and the inhibition at 1 µM was no less than 75%.

As to `CC(=O)N(C)c1cnn(C(=O)N2CC3CN(Cc4ccc(N5CCCC5)cc4C(F)(F)F)CC3C2)c1` (stereo not drawn) [Example 93, N-methyl-N-(1-(5-(4-(pyrrolidin-1-yl)-2-(trifluoromethyl)benzyl)octahydropyrrolo[3,4-c]pyrrole-2-carbonyl)-1H-pyrazol-4-yl)acetamide], at MAGL, the pIC50 is no less than 7.00 and the inhibition at 1 µM was no less than 75%. Further, at FAAH, the pIC50 was no less than 7.00 and the inhibition at 1 µM is no less than 75%.

For the compound `CC(=O)N(C)c1cnn(C(=O)N2CC3CN(Cc4ccccc4C)CC3C2)c1` (stereo not drawn) [Example 94, N-methyl-N-(1-(5-(2-methylbenzyl)octahydropyrrolo[3,4-c]pyrrole-2-carbonyl)-1H-pyrazol-4-yl)acetamide], the pIC50 was 6.00 to 7.00 on MAGL and no less than 7.00 on FAAH. Further, the inhibition at 1 µM at MAGL and on FAAH was no less than 75% in each case.

With `CC(=O)N(C)c1cnn(C(=O)N2CC3CN(Cc4ccc(N5CCOCC5)c(Cl)c4)CC3C2)c1` (stereo not drawn) [Example 95, N-(1-(5-(3-chloro-4-morpholinobenzyl)octahydropyrrolo[3,4-c]pyrrole-2-carbonyl)-1H-pyrazol-4-yl)-N-methylacetamide], the inhibition at 1 µM at MAGL and at FAAH was no less than 75% throughout.

On to `CC(=O)N(C)c1cnn(C(=O)N2CC3CN(Cc4ccccc4C(F)(F)F)CC3C2)c1` (stereo not drawn) [Example 96, N-methyl-N-(1-(5-(2-(trifluoromethyl)benzyl)octahydropyrrolo[3,4-c]pyrrole-2-carbonyl)-1H-pyrazol-4-yl)acetamide], for which, on MAGL, the pIC50 was no less than 7.00 and the inhibition at 1 µM was no less than 75%. On FAAH, the pIC50 is no less than 7.00 and the inhibition at 1 µM was no less than 75%.

Take `CC(=O)N(C)c1cnn(C(=O)N2CC3CN(Cc4ccc(N5CCCC5)c(C(F)(F)F)c4)CC3C2)c1` (stereo not drawn) [Example 97, N-methyl-N-(1-(5-(4-(pyrrolidin-1-yl)-3-(trifluoromethyl)benzyl)octahydropyrrolo[3,4-c]pyrrole-2-carbonyl)-1H-pyrazol-4-yl)acetamide]: the inhibition at 1 µM at MAGL and at FAAH was no less than 75% each time.

On to `CC(=O)N(C)c1cnn(C(=O)N2CC3CN(Cc4ccc(Cl)c(C(F)(F)F)c4)CC3C2)c1` (stereo not drawn) [Example 98, N-(1-(5-(4-chloro-3-(trifluoromethyl)benzyl)octahydropyrrolo[3,4-c]pyrrole-2-carbonyl)-1H-pyrazol-4-yl)-N-methylacetamide], for which the pIC50 on MAGL and on FAAH was no less than 7.00 throughout. Also, the inhibition at 1 µM at MAGL and at FAAH was no less than 75% in each case.

Take `CC(=O)N(C)c1cnn(C(=O)N2CC3CN(Cc4ccc(N5CCOCC5)c(C(F)(F)F)c4)CC3C2)c1` (stereo not drawn) [Example 99, N-methyl-N-(1-(5-(4-morpholino-3-(trifluoromethyl)benzyl)octahydropyrrolo[3,4-c]pyrrole-2-carbonyl)-1H-pyrazol-4-yl)acetamide]: the inhibition at 1 µM on MAGL and at FAAH was no less than 75% each time.

Consider `CC(=O)N(C)c1cnn(C(=O)N2CC3CN(Cc4ccc(F)c(N5CCCC5)c4)CC3C2)c1` (stereo not drawn) [Example 100, N-(1-(5-(4-fluoro-3-(pyrrolidin-1-yl)benzyl)octahydropyrrolo[3,4-c]pyrrole-2-carbonyl)-1H-pyrazol-4-yl)-N-methylacetamide], for which the pIC50 on MAGL and at FAAH was no less than 7.00 throughout. Moreover, the inhibition at 1 µM on MAGL and on FAAH was no less than 75% in each case.

Turning to `CC(=O)N(C)c1cnn(C(=O)N2CC3CN(Cc4ccc(N5CC6CCC(C5)O6)cc4C(F)(F)F)CC3C2)c1` (stereo not drawn) [Example 101, N-(1-(5-(4-(8-oxa-3-azabicyclo[3.2.1]octan-3-yl)-2-(trifluoromethyl)benzyl)octahydropyrrolo[3,4-c]pyrrole-2-carbonyl)-1H-pyrazol-4-yl)-N-methylacetamide], the inhibition at 1 µM on MAGL and at FAAH was no less than 75% throughout.

Consider `CC(=O)N(C)c1cnn(C(=O)N2CC3CN(Cc4ccc(N5C6CCC5COC6)cc4C(F)(F)F)CC3C2)c1` (stereo not drawn) [Example 102, N-(1-(5-(4-(3-oxa-8-azabicyclo[3.2.1]octan-8-yl)-2-(trifluoromethyl)benzyl)octahydropyrrolo[3,4-c]pyrrole-2-carbonyl)-1H-pyrazol-4-yl)-N-methylacetamide], for which the inhibition at 1 µM at MAGL and at FAAH was no less than 75% each time.

`CC(=O)N(C)c1cnn(C(=O)N2CC3CN(Cc4cccc(Cl)c4C)CC3C2)c1` (stereo not drawn) [Example 103, N-(1-(5-(3-chloro-2-methylbenzyl)octahydropyrrolo[3,4-c]pyrrole-2-carbonyl)-1H-pyrazol-4-yl)-N-methylacetamide]: on MAGL, the pIC50 was no less than 7.00 and the inhibition at 1 µM is no less than 75%. At FAAH, the pIC50 was no less than 7.00 and the inhibition at 1 µM was no less than 75%.

Take `CC(=O)N(C)c1cnn(C(=O)N2CC3CN(Cc4cc(Cl)ccc4C(F)(F)F)CC3C2)c1` (stereo not drawn) [Example 104, N-(1-(5-(5-chloro-2-(trifluoromethyl)benzyl)octahydropyrrolo[3,4-c]pyrrole-2-carbonyl)-1H-pyrazol-4-yl)-N-methylacetamide]: the inhibition at 1 µM at MAGL and on FAAH was no less than 75% each time.

(Values after patent US10323038B2, “Pyrazole compounds and methods of making and using same” (ABIDE THERAPEUTICS, INC., priority 2015, dated 2019).)
